This is an account of results in patent publication US4855287A, “Aminoglycoside compounds, processes for production thereof, and pharamaceutical composition containing the same” (Kowa Company, Ltd., priority 1985, dated 1989).

Read-outs that look alike come from different tables or passages of the source.

Series [1] concerns Bacillus subtilis ATCC 6633. As to the kind of experiment: Test for antibacterial activity (paper disk, diameter of inhibitory zone, before and after incubation in rat liver/kidney homogenate). Type of series: cell-based. As to conditions: 200 mcq/ml, 8 mm paper disk. As to the method: Each of the test compounds shown in the following table was dissolved in a concentration of 200 mcq/ml in a homogenate of a 10% physiological saline solution of an organ of a rat, and incubated at 37° C. for 2 hours. An enzymatic reaction was stopped by adding an equal amount of ethanol. The antibacterial activity of the test compound before incubation was compared with that after incubation. The incubation was carried out in an equal amount mixture of a liver homogenate and a kidney homogenate. The antibacterial activity was measured by a paper disk having a diameter of 8 mm using Bacillus subtilis ATCC 6633 as a test organism, and shown by the diameter of the resulting inhibitory zone.

The nature of series [2]: Test for concentrations in blood, intrarectal administration. Details: species or system Male rats. As to conditions: rat, in vivo. As to the method: Male rats (body weight 250-350 g: n=3) which had been caused to fast for 18 hours prior to administration were anesthetized with pentobarbirtal. After the abdomen was incised, the upper part of the duodenum was tied. Each of the test compounds was dissolved in water so that its concentration became 12.5 mg/ml as its starting antibiotic (the compound of formula II), and the solution was intraduodenally administered to the rats in a dose of 2 ml/kg. After the administration, blood was drawn periodically from the tail vein, and the concentration of the starting antibiotic in the blood was measured by antimicrobial assay and liquid chromatography.
Male rats (body weight 250-350 g: n=3) which had been caused to fast for 18 hours prior to administration were anesthetized with pentobarbirtal. After the abdomen was incised, the lower part of the rectum was tied. Each of the test compounds was administered intrarectally in the same dose in the same manner as in (1) above, and the concentration of the starting antibiotic in the blood was measured in the same way as in (1) above.

Setting [3] is: ATCC6633, after incubation at 37° C. for 2 hours in rat liver homogenate and kidney homogenate, read-out: Diameter of the inhibitory zone, after incubation.
Where [4] appears, read: ATCC6633, before incubation, read-out: Diameter of the inhibitory zone, before incubation.

Regarding `CC(N)C1CCC(N)C(OC2C(N)CC(O)C(N(C)C(=O)CNC(=O)[C@@H](N)CCC(=O)OCCCOC(=O)CC[C@@H](C)[C@H]3CC[C@H]4[C@@H]5CC[C@@H]6C[C@H](O)CC[C@]6(C)[C@H]5C[C@H](O)[C@]34C)C2O)O1` (stereo partly drawn) [Example 20, 2"-N-[γ-O-(3-deoxycholyloxypropyl)-L-glutamyl]-5-de-O-methyl-KA-6606I], the zone of inhibition at 200 µg/mL in series [1] (setting [3]) turned out to be 21.8 mm. Further, the zone of inhibition at 200 µg/mL in series [1] (setting [4]) came to 14.1 mm. In series [2], the “Maximum concentration in blood Cmax” value stood at 7760 ng/mL and the Tmax came out at 30 min.
The matching figures for `CC(=O)OC1CCC2(C)C(CCC3C2CC(OC(C)=O)C2(C)C(C(C)CCC(=O)OCCCCOC(=O)CCC(N)C(=O)NCC(=O)N(C)C4C(O)CC(N)C(OC5OC(C(C)N)CCC5N)C4O)CCC32)C1` [Example 27, 2"-N-{γ-O-[4-(3,12-di-O-acetyldeoxycholyloxy)butyl]-L-glutamyl}-5-de-O-methyl-KA-6606I]: 23.2 mm, 13.5 mm, 5300 ng/mL and 30 min.
Take `CC(N)C1CCC(N)C(OC2C(N)CC(O)C(N(C)C(=O)CNC(=O)[C@@H](N)CSC(c3ccccc3)c3ccccc3)C2O)O1` (stereo partly drawn) [Example 53, 2"-N-(S-diphenylmethyl-L-cysteinyl)-5-de-O-methyl-KA-6606I]: the results for the zone of inhibition at 200 µg/mL in series [1] (setting [3]) and in series [1] (setting [4]) were 24.3 mm and 16.5 mm, respectively.
The matching figures for `CC(N)C1CCC(N)C(OC2C(N)CC(O)C(N(C)C(=O)CNC(=O)[C@@H](N)CSCc3ccncc3)C2O)O1` (stereo partly drawn) [Example 54, 2"-N-[S-(4-picolyl)-L-cysteinyl]-5-de-O-methyl-KA-6606I]: 25.3 mm and 14.1 mm.
Take `CCCCCCCCCC(=O)SC[C@H](N)C(=O)NCC(=O)N(C)C1C(O)CC(N)C(OC2OC(C(C)N)CCC2N)C1O` (stereo partly drawn) [Example 55, 2"-N-(S-decanoyl-L-cysteinyl)-5-de-O-methyl-KA-6606I]: the zone of inhibition at 200 µg/mL in series [1] (setting [3]) amounted to 18.6 mm; in series [1] (setting [4]) it was 10.3 mm.
The matching figures for `CCCCCCCCCC(=O)OCCCOC(=O)CC[C@H](N)C(=O)NCC(=O)N(C)C1CCC(N)C(OC2OC(C(C)N)CCC2N)C1O` (stereo partly drawn) [Example 56, 2"-N-[N^γ -(3-decanoyloxypropyl)-L-glutamyl)-5-demethoxy-KA-6606I]: 24.6 mm and 17.5 mm.
The matching figures for `CCCCCCCCCC(=O)NCCCNC(=O)CC[C@H](N)C(=O)NCC(=O)N(C)C1C(OC)CC(N)C(OC2OC(CNC)CCC2N)C1O` (stereo partly drawn) [Example 57, 2"-N-[N^γ -(3-decanoylaminopropyl)-L-glutaminyl]-KA-7038I]: 23 mm and 15.9 mm.

One may read the Tmax as the time at which the peak concentration occurs.
